Results on one compound are retold here after ChEMBL document CHEMBL1147990 (Bioorg Med Chem, 2007).

The target in this test is Carbonic anhydrase 5A, mitochondrial (Homo sapiens, UniProt P35218). Nature of the test: Inhibition of human carbonic anhydrase 5A.

The structures appear in SMILES notation.

Carbonic anhydrase 5A, mitochondrial, sequence (P35218 whole entry): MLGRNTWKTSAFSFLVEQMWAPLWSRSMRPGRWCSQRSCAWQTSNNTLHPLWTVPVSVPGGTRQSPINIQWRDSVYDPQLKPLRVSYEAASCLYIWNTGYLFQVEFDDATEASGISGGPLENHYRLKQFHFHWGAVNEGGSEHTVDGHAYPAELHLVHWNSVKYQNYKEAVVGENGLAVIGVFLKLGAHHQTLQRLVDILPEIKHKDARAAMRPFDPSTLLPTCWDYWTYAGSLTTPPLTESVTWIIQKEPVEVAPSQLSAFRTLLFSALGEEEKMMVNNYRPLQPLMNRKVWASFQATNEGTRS

For `CC1(C)O[C@@H]2[C@@H](CO[C@@]3(COS(N)(=O)=O)OC(C)(C)O[C@@H]23)O1` [TOPIRAMATE], binding was characterised by a dissociation constant (Kd) of 25.4 nM.
